Several values for one entry are separate records, joined by “and”; a condition that tells them apart may be missing. Equal values may be shown once.
System: recurrent or metastatic cervical cancer that has progressed after platinum-containing chemotherapy
Experiment: Phase 3 trial, cemiplimab 350 mg IV Q3W versus investigator's choice (IC) chemotherapy: OS, PFS, ORR, DOR;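 further: randomized trial arms, OS counted from randomization until death with censoring at last contact, PFS until first RECIST 1.1 progression or death from any cause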
Conditions: for OS Hazard Ratio (95% CI) / OS subgroup analysis, Hazard Ratio (95% CI) / PFS HR (95% CI): cemiplimab vs chemotherapy; for Median OS (95% CI) / Median PFS (95% CI) / Median DOR, months (95% CI): Kaplan-Meier; for PFS Hazard Ratio (95% CI): cemiplimab vs chemo; for reduction in the risk of disease progression: vs chemotherapy
[1] = AC, cemiplimab N=65, chemo N=66
[2] = Example 3 analysis, total population
[3] = Example 4 updated, AC, listed as cemiplimab
[4] = Example 4 updated, SCC, listed as cemiplimab
[5] = Example 4 updated, overall population
[6] = Example 4 updated, overall population, listed as cemiplimab
[7] = overall population, listed as cemiplimab
[8] = overall population, N=304 per arm

cemiplimab
ORR (AC): 12.3% and 12% | OS Hazard Ratio (95% CI) (AC (non-SCC)): 0.556 (0.363, 0.853) and 0.56 (0.36-0.85) | OS Hazard Ratio (95% CI) (AC (non-SCC), listed as cemiplimab): 0.56 | Estimated Event-Free Probability (PFS), % (95% CI) (AC, 6 months): 30.1 (19.3, 41.6) % | Estimated Survival Probability, % (95% CI) (AC, 6 months): 69.6 (56.5, 79.4) % | Estimated Event-Free Probability (PFS), % (95% CI) (AC, 12 months): 10.6 (4.4, 20.0) % | Estimated Survival Probability, % (95% CI) (AC, 12 months): 57.4 (43.9, 68.7) % | Estimated Event-Free Probability (PFS), % (95% CI) (AC, 18 months): 8.5 (3.0, 17.6) % | Estimated Survival Probability, % (95% CI) (AC, 18 months): 34.2 (21.5, 47.3) % | Estimated Event-Free Probability (PFS), % (95% CI) (AC, 24 months): 8.5 (3.0, 17.6) % | Estimated Survival Probability, % (95% CI) (AC, 24 months): 19.5 (8.4, 34.1) % | Median OS (95% CI) (AC): 13.3 (9.6, 17.6) months | Median OS (95% CI) (AC, listed as cemiplimab): 13.3 months | Best Overall Tumor Response: Complete Response (CR) [1]: 3 (4.6%) n (%) | Best Overall Tumor Response: Not Evaluable (NE) [1]: 6 (9.2%) n (%) | Best Overall Tumor Response: Partial Response (PR) [1]: 5 (7.7%) n (%) | Best Overall Tumor Response: Progressive Disease (PD) [1]: 19 (29.2%) n (%) | OS: Number of censored patients [1]: 24 (36.9%) n (%) | Objective Response Rate (ORR: CR + PR) [1]: 8 (12.3%) n (%) | Reduced risk of death (vs. chemotherapy) (AC, post-hoc): 44% | Reduced risk of death (vs. chemotherapy) (AC, post-hoc, listed as cemiplimab): 44% | OS subgroup analysis, Hazard Ratio (95% CI) (ECOG status per IWRS: 0): 0.59 (0.43-0.82) | OS subgroup analysis, Hazard Ratio (95% CI) (ECOG status per IWRS: 1): 0.74 (0.57-0.96) | PFS: Number of events (Example 3 analysis, Adeno, cemiplimab N=65, chemo N=66): 55 (84.6%) n (%) | PFS Hazard Ratio (95% CI) (Example 3 analysis, Adeno): 0.849 (0.574, 1.255) | Median PFS in month (95% CI) (Example 3 analysis, SCC): 2.8 (2.6, 4.0) month | PFS: Number of censored patients (Example 3 analysis, SCC): 53 (22.2%) n (%) | PFS: Number of deaths (Example 3 analysis, SCC): 25 (10.5%) n (%) | PFS: Progressive Disease (Example 3 analysis, SCC): 161 (67.4%) n (%) | Reduced risk of progression (vs. chemotherapy) (Example 3 analysis, SCC): 31% | PFS Hazard Ratio (95% CI) (Example 3 analysis, SCC): 0.686 (0.559, 0.843) | Median PFS in month (95% CI) [2]: 2.8 (2.6, 3.9) month | PFS: Number of censored patients [2]: 63 (20.7%) n (%) | PFS: Number of deaths [2]: 31 (10.2%) n (%) | PFS: Progressive Disease [2]: 210 (69.1%) n (%) | Reduced risk of progression (vs. chemotherapy) [2]: 28% | PFS: Number of events (Example 3 analysis, total population, N=304 per arm): 241 (79.3%) n (%) | PFS Hazard Ratio (95% CI) [2]: 0.719 (0.599, 0.862) | PFS: Number of censored patients (Example 4 updated, AC): 9 (13.8%) n (%) | PFS: Number of deaths (Example 4 updated, AC): 7 (10.8%) n (%) | PFS: Progressive Disease (Example 4 updated, AC): 49 (75.4%) n (%) | reduction in the risk of disease progression (Example 4 updated, AC, post-hoc): 9% | Median PFS (95% CI) (Example 4 updated, AC): 2.7 (2.3, 4.0) months | Median PFS (95% CI) [3]: 2.7 months | PFS: Number of events (Example 4 updated, AC, cemiplimab N=65, chemo N=66): 56 (86.2%) n (%) | PFS HR (95% CI) (Example 4 updated, AC): 0.912 (0.623, 1.335) | PFS HR (95% CI) [3]: 0.91 | PFS: Number of censored patients (Example 4 updated, SCC): 42 (17.6%) n (%) | PFS: Number of deaths (Example 4 updated, SCC): 34 (14.2%) n (%) | PFS: Progressive Disease (Example 4 updated, SCC): 163 (68.2%) n (%) | Median PFS (95% CI) (Example 4 updated, SCC): 2.8 (2.6, 4.0) months | Median PFS (95% CI) [4]: 2.8 months | PFS HR (95% CI) (Example 4 updated, SCC): 0.705 (0.578, 0.861) | PFS HR (95% CI) [4]: 0.71 | reduction in the risk of disease progression (Example 4 updated, SCC): 29% | PFS: Number of censored patients [5]: 51(16.8%) n (%) | PFS: Number of deaths [5]: 41(13.5%) n (%) | PFS: Progressive Disease [5]: 212 (69.7%) n (%) | Median PFS (95% CI) [5]: 2.8 (2.6, 3.9) months | Median PFS (95% CI) [6]: 2.8 months | PFS: Number of events (Example 4 updated, overall population, N=304 per arm): 253 (83.2%) n (%) | PFS HR (95% CI) [5]: 0.745 (0.625, 0.890) | PFS HR (95% CI) [6]: 0.75 | reduction in the risk of disease progression [5]: 25% | OS subgroup analysis, Hazard Ratio (95% CI) (Geographic region: Asia): 0.65 (0.44-0.96) | OS subgroup analysis, Hazard Ratio (95% CI) (Geographic region: North America): 0.52 (0.27-1.00) | OS subgroup analysis, Hazard Ratio (95% CI) (Geographic region: Rest of World): 0.73 (0.57-0.94) | OS subgroup analysis, Hazard Ratio (95% CI) (Prior bevacizumab use: No): 0.76 (0.58-1.00) | OS subgroup analysis, Hazard Ratio (95% CI) (Prior bevacizumab use: Yes): 0.64 (0.48-0.86) | Reduced risk of death (vs. chemotherapy) (SCC): 27% | Estimated Event-Free Probability (PFS), % (95% CI) (SCC, 6 months): 34.5 (28.5, 40.5) % | Estimated Survival Probability, % (95% CI) (SCC, 6 months): 69.6 (63.3, 75.0) % | Estimated Event-Free Probability (PFS), % (95% CI) (SCC, 12 months): 21.0 (15.8, 26.6) % | Estimated Survival Probability, % (95% CI) (SCC, 12 months): 48.2 (41.3, 54.7) % | Estimated Event-Free Probability (PFS), % (95% CI) (SCC, 18 months): 14.5 (9.7, 20.1) % | Estimated Survival Probability, % (95% CI) (SCC, 18 months): 33.4 (26.3, 40.6) % | Estimated Event-Free Probability (PFS), % (95% CI) (SCC, 24 months): 10.3 (5.9, 16.0) % | Estimated Survival Probability, % (95% CI) (SCC, 24 months): 25.3 (17.8, 33.5) % | Estimated Event-Free Probability (PFS), % (95% CI) (SCC, 30 months): 7.7 (3.2, 14.8) % | Estimated Survival Probability, % (95% CI) (SCC, 30 months): 25.3 (17.8, 33.5) % | Median OS (95% CI) (SCC): 11.1 (9.2, 13.4) months | Median OS (95% CI) (SCC, listed as cemiplimab): 11.1 months | OS Hazard Ratio (95% CI) (SCC, stratified proportional hazards model): 0.727 (0.579, 0.914) and 0.73 (0.58-0.91) | OS Hazard Ratio (95% CI) (SCC, stratified proportional hazards model, listed as cemiplimab): 0.73 | ORR (SCC, listed as cemiplimab): 17.6% and 18% | Reduced risk of death (vs. chemotherapy) (SCC, listed as cemiplimab): 27% | OS: Number of deaths (adenocarcinoma/adenosquamous (AC), cemiplimab N=65, chemo N=66): 41 (63.1%) n (%) | Median observed time to response, months (range) (overall population): 2.7 (1.2-11.4) months | Reduced risk of death (vs. chemotherapy) (overall population): 31% | Estimated Event-Free Probability (PFS), % (95% CI) (overall population, 6 months): 33.5 (28.2, 38.9) % | Estimated Survival Probability, % (95% CI) (overall population, 6 months): 69.6 (64.0, 74.5) % | Estimated Event-Free Probability (PFS), % (95% CI) (overall population, 12 months): 18.8 (14.4, 23.6) % | Estimated Survival Probability, % (95% CI) (overall population, 12 months): 50.2 (44.1, 56.0) % | Estimated Event-Free Probability (PFS), % (95% CI) (overall population, 18 months): 13.0 (9.0, 17.8) % | Estimated Survival Probability, % (95% CI) (overall population, 18 months): 33.4 (27.2, 39.7) % | Estimated Event-Free Probability (PFS), % (95% CI) (overall population, 24 months): 9.7 (6.0, 14.6) % | Estimated Survival Probability, % (95% CI) (overall population, 24 months): 23.6 (17.1, 30.6) % | Estimated Event-Free Probability (PFS), % (95% CI) (overall population, 30 months): 7.8 (3.8, 13.6) % | Estimated Survival Probability, % (95% CI) (overall population, 30 months): 23.6 (17.1, 30.6) % | Median DOR, months (95% CI) (overall population): 16.4 (12.4, NE) months | Median OS (95% CI) (overall population): 12.0 (10.3, 13.5) months | Median DOR, months (95% CI) [7]: 16 months | Median OS (95% CI) [7]: 12 months and 12.0 months | Best Overall Tumor Response: Complete Response (CR) [8]: 10 (3.3) n (%) | Best Overall Tumor Response: Not Evaluable (NE) [8]: 24 (7.9) n (%) | Best Overall Tumor Response: Partial Response (PR) [8]: 40 (13.2) n (%) | Best Overall Tumor Response: Progressive Disease (PD) [8]: 105 (34.5) n (%) | OS: Number of censored patients [8]: 120 (39.5%) n (%) | OS: Number of deaths [8]: 184 (60.5%) n (%) | Objective Response Rate (ORR: CR + PR) [8]: 50 (16.4%) n (%) | OS Hazard Ratio (95% CI) (overall population): 0.685 (0.560, 0.838) | OS Hazard Ratio (95% CI) [7]: 0.69 | ORR [7]: 16.4% and 16% | Reduced risk of death (vs. chemotherapy) [7]: 31% | OS subgroup analysis, Hazard Ratio (95% CI) (prior lines: 1 line): 0.74 (0.58-0.94) | OS subgroup analysis, Hazard Ratio (95% CI) (prior lines: >1 line): 0.72 (0.54-0.95)
